A value given as a limit tells only on which side of the number the result lay.

The target of assay [1] is BTK (Homo sapiens, UniProt Q06187). Nature of the assay: Degradation of BTK protein in Namalwa cells (Western blot; DC50, Dmax). The settings on record: for DC50: BTK degradation, cell line not given. Background: In western blotting, separated proteins are transferred to a membrane and probed.
Assay [2] deals with Mino cells. Nature of the assay: Antiproliferative effect, MTS cell viability assay, Mino cells. The class given is cell-based. The settings on record: Homo sapiens, MINO, Mino mantle cell lymphoma cells; read-out: IC50 (anti-proliferation) Mino cells. Put shortly:
(§1)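 Steps: seed B-cell lymphoma line; add compound at 0, 0.001, 0.01, 0.1, 1 or 10 μM; incubate 72 h; add MTS and read reduced tetrazolium (formazan) absorbance at 490 nm.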

For assay [3], the system named is JeKo-1 cells. Nature of the assay: Antiproliferative effect, MTS cell viability assay, JeKo-1 cells. The assay is classed as cell-based. The settings on record: Homo sapiens; JeKo-1 mantle cell lymphoma cells; read-out: IC50 (anti-proliferation) JeKO-1 cells. Put shortly:
as §1
For orientation: Tetrazolium assays rely on reduction of a dye to a coloured formazan, in cell work by metabolically active cells.

BTK, sequence (Q06187 whole entry): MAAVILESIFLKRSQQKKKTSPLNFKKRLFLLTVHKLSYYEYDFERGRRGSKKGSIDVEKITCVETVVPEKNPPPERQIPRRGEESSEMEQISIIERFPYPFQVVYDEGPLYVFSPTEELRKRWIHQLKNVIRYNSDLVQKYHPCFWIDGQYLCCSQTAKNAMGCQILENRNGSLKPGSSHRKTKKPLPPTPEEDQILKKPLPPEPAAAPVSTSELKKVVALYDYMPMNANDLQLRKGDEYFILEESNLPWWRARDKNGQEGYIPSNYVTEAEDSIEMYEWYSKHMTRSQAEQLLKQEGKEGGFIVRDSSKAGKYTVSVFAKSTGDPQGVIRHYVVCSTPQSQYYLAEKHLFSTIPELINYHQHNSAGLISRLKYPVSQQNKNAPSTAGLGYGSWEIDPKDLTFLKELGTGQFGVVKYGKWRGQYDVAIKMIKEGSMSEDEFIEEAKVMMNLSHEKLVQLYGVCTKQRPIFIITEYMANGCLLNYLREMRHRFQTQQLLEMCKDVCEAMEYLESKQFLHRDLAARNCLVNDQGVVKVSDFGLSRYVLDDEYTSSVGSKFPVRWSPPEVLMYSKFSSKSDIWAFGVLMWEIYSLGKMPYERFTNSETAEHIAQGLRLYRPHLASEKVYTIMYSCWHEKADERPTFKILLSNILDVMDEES

In general, Dmax refers to the greatest extent of degradation seen. What is called DC50 is the concentration at which degradation of the target reaches its halfway point. Lower therefore signals a more potent degrader. `NC(=O)c1c(-c2ccc(Oc3ccccc3)cc2)nn2c1NCCC2C1CCN(CC2CCN(C(=O)N3CCN(c4ccc5c(c4)C(=O)N(C4CCC(=O)NC4=O)C5=O)CC3)CC2)CC1` (centres unmarked) [Compound 357, 7-(1-((1-(4-(2-(2,6-dioxopiperidin-3-yl)-1,3-dioxoisoindolin-5-yl)piperazine-1-carbonyl)piperidin-4-yl)methyl)piperidin-4-yl)-2-(4-phenoxyphenyl)-4,5,6,7-tetrahydropyrazolo[1,5-a]pyrimidine-3-carboxamide]: in assay [1], the Dmax is above 50% and the DC50 is above 50 nM. The IC50 in assay [2] is above 10000 nM. In assay [3], the IC50 is above 10000 nM.

In turn, `NC(=O)c1c(-c2ccc(Oc3ccccc3)cc2)nn2c1NCCC2C1CCN(CC2CCN(C(=O)N3CCN(c4ccc5c(c4)CN(C4CCC(=O)NC4=O)C5=O)CC3)CC2)CC1` (centres unmarked) [Compound 358, 7-(1-((1-(4-(2-(2,6-dioxopiperidin-3-yl)-1-oxoisoindolin-5-yl)piperazine-1-carbonyl)piperidin-4-yl)methyl)piperidin-4-yl)-2-(4-phenoxyphenyl)-4,5,6,7-tetrahydropyrazolo[1,5-a]pyrimidine-3-carboxamide] gave a maximal degradation (Dmax) in assay [1] above 50%. This compound also came in with a DC50 in assay [1] above 50 nM. Moreover, the IC50 in assay [2] and in assay [3] was above 10000 nM each time.

On to `NC(=O)c1c(-c2ccc(Oc3ccccc3)cc2)nn2c1NCCC2C1CCN(CC2CCN(C(=O)N3CCN(Cc4ccc5c(c4)C(=O)N(C4CCC(=O)NC4=O)C5=O)CC3)CC2)CC1` (centres unmarked) [Compound 359, 7-(1-((1-(4-((2-(2,6-dioxopiperidin-3-yl)-1,3-dioxoisoindolin-5-yl)methyl)piperazine-1-carbonyl)piperidin-4-yl)methyl)piperidin-4-yl)-2-(4-phenoxyphenyl)-4,5,6,7-tetrahydropyrazolo[1,5-a]pyrimidine-3-carboxamide], for which, in assay [1], the greatest degradation seen (Dmax) was above 50% and the DC50 was above 50 nM. Also, the IC50 in assay [2] is above 10000 nM. Besides, the IC50 in assay [3] was above 10000 nM.

As for `NC(=O)c1c(-c2ccc(Oc3ccccc3)cc2)nn2c1NCCC2C1CCN(CC2CCN(C(=O)N3CCN(Cc4ccc5c(c4)CN(C4CCC(=O)NC4=O)C5=O)CC3)CC2)CC1` (centres unmarked) [Compound 360, 7-(1-((1-(4-((2-(2,6-dioxopiperidin-3-yl)-1-oxoisoindolin-5-yl)methyl)piperazine-1-carbonyl)piperidin-4-yl)methyl)piperidin-4-yl)-2-(4-phenoxyphenyl)-4,5,6,7-tetrahydropyrazolo[1,5-a]pyrimidine-3-carboxamide], in assay [1], the maximal degradation (Dmax) is above 75% and the half-maximal degradation concentration (DC50) is above 50 nM. In addition, the IC50 in assay [2] is above 10000 nM. Moreover, the IC50 in assay [3] is above 10000 nM.

In assay [1], `NC(=O)c1c(-c2ccc(Oc3ccccc3)cc2)nn2c1NCCC2C1CCN(CC2CCN(C(=O)N3CCN(C4CCN(c5ccc6c(c5)C(=O)N(C5CCC(=O)NC5=O)C6=O)CC4)CC3)CC2)CC1` (centres unmarked) [Compound 361, 7-(1-((1-(4-(1-(2-(2,6-dioxopiperidin-3-yl)-1,3-dioxoisoindolin-5-yl)piperidin-4-yl)piperazine-1-carbonyl)piperidin-4-yl)methyl)piperidin-4-yl)-2-(4-phenoxyphenyl)-4,5,6,7-tetrahydropyrazolo[1,5-a]pyrimidine-3-carboxamide] yielded a Dmax above 90% and a DC50 of 10 to 50 nM. The IC50 in assay [2] was 1000 to 10000 nM. The IC50 in assay [3] lay in the range of 1000 to 10000 nM.

In assay [1], `NC(=O)c1c(-c2ccc(Oc3ccccc3)cc2)nn2c1NCCC2C1CCN(CC2CCN(C(=O)N3CCN(C4CCN(c5ccc6c(c5)CN(C5CCC(=O)NC5=O)C6=O)CC4)CC3)CC2)CC1` (centres unmarked) [Compound 362, 7-(1-((1-(4-(1-(2-(2,6-dioxopiperidin-3-yl)-1-oxoisoindolin-5-yl)piperidin-4-yl)piperazine-1-carbonyl)piperidin-4-yl)methyl)piperidin-4-yl)-2-(4-phenoxyphenyl)-4,5,6,7-tetrahydropyrazolo[1,5-a]pyrimidine-3-carboxamide] showed a Dmax above 90% and a DC50 below 10 nM. Moreover, in assay [2], the IC50 lay in the range of 1000 to 10000 nM. Besides, the IC50 in assay [3] was 1000 to 10000 nM.

As for `NC(=O)c1c(-c2ccc(Oc3ccccc3)cc2)nn2c1NCCC2C1CCN(CC2CCN(C(=O)N3CCC(N4CCN(c5ccc6c(c5)C(=O)N(C5CCC(=O)NC5=O)C6=O)CC4)CC3)CC2)CC1` (centres unmarked) [Compound 363, 7-(1-((1-(4-(4-(2-(2,6-dioxopiperidin-3-yl)-1,3-dioxoisoindolin-5-yl)piperazin-1-yl)piperidine-1-carbonyl)piperidin-4-yl)methyl)piperidin-4-yl)-2-(4-phenoxyphenyl)-4,5,6,7-tetrahydropyrazolo[1,5-a]pyrimidine-3-carboxamide], in assay [1], the Dmax was above 90% and the 50% degradation concentration (DC50) was 10 to 50 nM. For the same compound, the IC50 in assay [2] is below 1000 nM. Moreover, the IC50 in assay [3] lay in the range of 1000 to 10000 nM.

In assay [1], `NC(=O)c1c(-c2ccc(Oc3ccccc3)cc2)nn2c1NCCC2C1CCN(CC2CCN(C(=O)N3CCC(N4CCN(c5ccc6c(c5)CN(C5CCC(=O)NC5=O)C6=O)CC4)CC3)CC2)CC1` (centres unmarked) [Compound 364, 7-(1-((1-(4-(4-(2-(2,6-dioxopiperidin-3-yl)-1-oxoisoindolin-5-yl)piperazin-1-yl)piperidine-1-carbonyl)piperidin-4-yl)methyl)piperidin-4-yl)-2-(4-phenoxyphenyl)-4,5,6,7-tetrahydropyrazolo[1,5-a]pyrimidine-3-carboxamide] showed a Dmax above 90% and a DC50 below 10 nM. Moreover, in assay [2], the IC50 is below 1000 nM. In assay [3], the IC50 was below 1000 nM.

For `NC(=O)c1c(-c2ccc(Oc3ccccc3)cc2)nn2c1NCCC2C1CCN(CC2CCN(C(=O)N3CCC(C4CCN(c5ccc6c(c5)C(=O)N(C5CCC(=O)NC5=O)C6=O)CC4)CC3)CC2)CC1` (centres unmarked) [Compound 365, 7-(1-((1-(1′-(2-(2,6-dioxopiperidin-3-yl)-1,3-dioxoisoindolin-5-yl)-[4,4′-bipiperidine]-1-carbonyl)piperidin-4-yl)methyl)piperidin-4-yl)-2-(4-phenoxyphenyl)-4,5,6,7-tetrahydropyrazolo[1,5-a]pyrimidine-3-carboxamide], in assay [1], the Dmax is above 90% and the DC50 is 10 to 50 nM. For the same compound, in assay [2], the IC50 is below 1000 nM. Further, the IC50 in assay [3] is below 1000 nM.

`NC(=O)c1c(-c2ccc(Oc3ccccc3)cc2)nn2c1NCCC2C1CCN(CC2CCN(C(=O)N3CCC(C4CCN(c5ccc6c(c5)CN(C5CCC(=O)NC5=O)C6=O)CC4)CC3)CC2)CC1` (centres unmarked) [Compound 366, 7-(1-((1-(1′-(2-(2,6-dioxopiperidin-3-yl)-1-oxoisoindolin-5-yl)-[4,4′-bipiperidine]-1-carbonyl)piperidin-4-yl)methyl)piperidin-4-yl)-2-(4-phenoxyphenyl)-4,5,6,7-tetrahydropyrazolo[1,5-a]pyrimidine-3-carboxamide]: the Dmax in assay [1] is above 90%. For the same compound, in assay [1], the DC50 was below 10 nM. For the same compound, the IC50 in assay [2] and in assay [3] was below 1000 nM throughout.

With `NC(=O)c1c(-c2ccc(Oc3ccccc3)cc2)nn2c1NCCC2C1CCN(CC2CCN(C(=O)N3CCC(N4CCC(c5ccc6c(c5)C(=O)N(C5CCC(=O)NC5=O)C6=O)CC4)CC3)CC2)CC1` (centres unmarked) [Compound 367, 7-(1-((1-(4-(2-(2,6-dioxopiperidin-3-yl)-1,3-dioxoisoindolin-5-yl)-[1,4′-bipiperidine]-1′-carbonyl)piperidin-4-yl)methyl)piperidin-4-yl)-2-(4-phenoxyphenyl)-4,5,6,7-tetrahydropyrazolo[1,5-a]pyrimidine-3-carboxamide], in assay [1], the maximal degradation (Dmax) is above 90% and the 50% degradation concentration (DC50) lay in the range of 10 to 50 nM. Also, in assay [2], the IC50 was below 1000 nM. Further, the IC50 in assay [3] is 1000 to 10000 nM.

With `NC(=O)c1c(-c2ccc(Oc3ccccc3)cc2)nn2c1NCCC2C1CCN(CC2CCN(C(=O)N3CCC(N4CCC(c5ccc6c(c5)CN(C5CCC(=O)NC5=O)C6=O)CC4)CC3)CC2)CC1` (centres unmarked) [Compound 368, 7-(1-((1-(4-(2-(2,6-dioxopiperidin-3-yl)-1-oxoisoindolin-5-yl)-[1,4′-bipiperidine]-1′-carbonyl)piperidin-4-yl)methyl)piperidin-4-yl)-2-(4-phenoxyphenyl)-4,5,6,7-tetrahydropyrazolo[1,5-a]pyrimidine-3-carboxamide], in assay [1], the maximal degradation (Dmax) is above 90% and the half-maximal degradation concentration (DC50) was below 10 nM. The IC50 in assay [2] is below 1000 nM. Further, in assay [3], the IC50 lay within 1000 to 10000 nM.

In the case of `NC(=O)c1c(-c2ccc(Oc3ccccc3)cc2)nn2c1NCCC2C1CCN(CC2CCN(C(=O)N3CCC(CN4CCN(c5ccc6c(c5)C(=O)N(C5CCC(=O)NC5=O)C6=O)CC4)CC3)CC2)CC1` (centres unmarked) [Compound 369, 7-(1-((1-(4-((4-(2-(2,6-dioxopiperidin-3-yl)-1,3-dioxoisoindolin-5-yl)piperazin-1-yl)methyl)piperidine-1-carbonyl)piperidin-4-yl)methyl)piperidin-4-yl)-2-(4-phenoxyphenyl)-4,5,6,7-tetrahydropyrazolo[1,5-a]pyrimidine-3-carboxamide], the greatest degradation seen (Dmax) in assay [1] is above 90%. For the same compound, the DC50 in assay [1] was below 10 nM. Also, the IC50 is below 1000 nM in assay [2] and 1000 to 10000 nM in assay [3].

In assay [1], `NC(=O)c1c(-c2ccc(Oc3ccccc3)cc2)nn2c1NCCC2C1CCN(CC2CCN(C(=O)N3CCC(CN4CCN(c5ccc6c(c5)CN(C5CCC(=O)NC5=O)C6=O)CC4)CC3)CC2)CC1` (centres unmarked) [Compound 370, 7-(1-((1-(4-((4-(2-(2,6-dioxopiperidin-3-yl)-1-oxoisoindolin-5-yl)piperazin-1-yl)methyl)piperidine-1-carbonyl)piperidin-4-yl)methyl)piperidin-4-yl)-2-(4-phenoxyphenyl)-4,5,6,7-tetrahydropyrazolo[1,5-a]pyrimidine-3-carboxamide] yielded a Dmax above 90% and a DC50 below 10 nM. Also, in assay [2], the IC50 is below 1000 nM. Moreover, in assay [3], the IC50 is below 1000 nM.

For the origin of these results see patent US12139492B2 (Endotarget Inc., priority 2021, dated 2024).
